Experimental findings from US12427144B2, “Compounds and methods for the targeted degradation of androgen receptor” (Arvinas Operations, Inc., priority 2019, dated 2025) are described below.

Structures are written as SMILES. A value given as a limit tells only on which side of the number the result lay.

This assay deals with T1, androgen receptor (Homo sapiens, UniProt P10275).
T1 construct: endogenous in cells; host or cells: VCaP
T1 sequence (P10275 1-920): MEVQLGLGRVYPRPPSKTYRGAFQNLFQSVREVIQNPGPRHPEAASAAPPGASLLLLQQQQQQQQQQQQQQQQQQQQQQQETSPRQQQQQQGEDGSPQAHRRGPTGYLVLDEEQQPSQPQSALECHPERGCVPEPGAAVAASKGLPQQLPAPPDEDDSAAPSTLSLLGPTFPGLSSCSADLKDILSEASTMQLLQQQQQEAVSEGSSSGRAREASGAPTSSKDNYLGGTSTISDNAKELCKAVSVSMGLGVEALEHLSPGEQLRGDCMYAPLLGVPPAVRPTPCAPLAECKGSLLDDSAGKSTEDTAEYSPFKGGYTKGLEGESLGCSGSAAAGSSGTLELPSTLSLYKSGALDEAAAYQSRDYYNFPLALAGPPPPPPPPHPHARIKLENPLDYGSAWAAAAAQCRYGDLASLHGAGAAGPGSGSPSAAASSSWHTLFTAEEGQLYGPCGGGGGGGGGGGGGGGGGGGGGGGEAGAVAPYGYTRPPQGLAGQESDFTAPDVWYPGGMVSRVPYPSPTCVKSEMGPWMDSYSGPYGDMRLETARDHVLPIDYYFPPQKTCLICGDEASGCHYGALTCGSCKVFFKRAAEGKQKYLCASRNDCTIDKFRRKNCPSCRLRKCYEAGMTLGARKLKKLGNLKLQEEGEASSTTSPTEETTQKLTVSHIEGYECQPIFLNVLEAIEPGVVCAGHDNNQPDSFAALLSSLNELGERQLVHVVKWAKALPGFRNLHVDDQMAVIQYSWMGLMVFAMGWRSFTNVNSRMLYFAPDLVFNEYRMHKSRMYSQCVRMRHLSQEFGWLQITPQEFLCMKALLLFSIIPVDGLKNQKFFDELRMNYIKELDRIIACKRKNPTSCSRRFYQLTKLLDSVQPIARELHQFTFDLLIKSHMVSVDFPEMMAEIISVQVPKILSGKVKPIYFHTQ
The experiment in a line: AR ELISA assay (PathScan AR Sandwich ELISA), VCaP cells. It counts as cell-based. The settings on record: drug treatment 5 hours. The protocol: Compounds were evaluated in this assay in LNCaP and/or VCaP cells utilizing similar protocols. The protocols used with VCaP cells are described below. The androgen receptor ELISA assay was performed using PathScan AR Sandwich ELISA (Cell Signaling Catalog #12850) according to the following assay steps:
VCaP cells were seeded at 40,000 cells/well at a volume of 100 μL/well in VCaP assay medium [Phenol red free RPMI (Gibco Cat #11835-030); 5% Charcoal Stripped (Dextran treated) FBS (Omega Scientific, Cat #FB-04); 1% penstrep (Life Technologies, Gibco Cat #: 10378-016)] in Corning 3904 plates. The cells were incubated for a minimum of 3 days. Cells were dosed with PROTACs diluted in 0.01% DMSO and the drug treatment was allowed for 5 hours.
AR ELISA (Cell Signaling) was performed as follows. 1× Cell Signaling Cell lysis buffer was made (Catalogue #9803; comes with the kit). Media from the treated wells is aspirated, and 100 μL 1× cell lysis buffer/well is added. The cells were placed on a shaker for 10 minutes at 4° C. Twenty microliters of lysate was transferred to 100 μl of Diluent in ELISA plate (0.15 μg/ml-[…]). The lysate-diluent mixture was shaken for 30 minutes at 37° C. Allow mouse AR antibody, anti-mouse antibody, TMB, and STOP solution to come to room temperature. The 1×ELISA buffer included in kit was made and loaded in the reservoir. Media from the plates was discarded, the ELISA plate tapped hard on paper towel, and washed 4×200 μl ELISA wash buffer using a plate washer.
One-hundred (100) […] of mouse AR detection Ab was added; the plates were covered and shaken at 37° C. for 1 hour; media was discarded from the plates, the plates were tapped on a paper towel, washed 4× with 200 μL ELISA wash buffer with a plate washer.
One-hundred (100) […] of anti-mouse—HRP conjugated Ab (comes with the kit) was added; the plates were covered and shaken at 37° C. for 30 minutes; the TMB reagent was allowed to come to room temperature; the media was discard from the plate, the plates were tapped on paper towel, washed 4× with 200 μL of ELISA wash buffer; the plates were tapped the plates on paper towel. One-hundred (100) L of TMB was added and the plates shaken for 2 minutes—while watching for color development. One-hundred (100) L Stop solution was added when light blue color developed. Plates were shaken and read at 450 nm.
Progression of prostate cancer in patients treated with anti-androgen therapy usually involves one of several mechanisms of enhanced Androgen Receptor (AR) signaling, including increased intratumoral androgen synthesis, increased AR expression and AR mutations. PROTACs (PROteolysis TArgeting Chimera), which use bi-functional molecules that simultaneously bind a target of choice and an E3 ligase, cause ubiquitination via induced proximity and degradation of the targeted, pathological protein. As opposed to traditional target inhibition, which is a competitive process, degradation is a progressive process. As such, it is less susceptible to increases in endogenous ligand, target expression, or mutations in the target. Thus, this technology appears to be ideal for addressing the mechanisms of AR resistance in patients with prostate cancer. Data was analyzed and plotted using GraphPad Prism software.
Regarding `Cc1cc(O[C@H]2C(C)(C)[C@H](NC(=O)c3cnc(N4CCC(CN(C(C)C)[C@H]5C[C@H](Oc6ccc(C(=O)NC7CCC(=O)NC7=O)cc6)C5)CC4)nc3)C2(C)C)cc(C)c1C#N` (stereo partly drawn) [Compound 12, N-((1R,3R)-3-(4-cyano-3,5-dimethylphenoxy)-2,2,4,4-tetramethylcyclobutyl)-2-(4-((((1R,3R)-3-(4-((2,6-dioxopiperidin-3-yl)carbamoyl)phenoxy)cyclobutyl)(isopropyl)amino)methyl)piperidin-1-yl)pyrimidine-5-carboxamide], the DC50 was under 1 nM and the Dmax is at least 70%.
In the same order, the values of `Cc1cc(O[C@H]2C(C)(C)[C@H](NC(=O)c3cnc(N4CCC(CN(C(C)C)[C@H]5C[C@H](Oc6ccc(C(=O)NC7CCC(=O)NC7=O)cc6)C5)CC4)cn3)C2(C)C)cc(C)c1C#N` (stereo partly drawn) [Compound 13, N-((1R,3R)-3-(4-cyano-3,5-dimethylphenoxy)-2,2,4,4-tetramethylcyclobutyl)-5-(4-((((1R,3R)-3-(4-((2,6-dioxopiperidin-3-yl)carbamoyl)phenoxy)cyclobutyl)(isopropyl)amino)methyl)piperidin-1-yl)pyrazine-2-carboxamide] are 1 to 10 nM and 50 to 70%.
Regarding `Cc1cc(O[C@H]2C(C)(C)[C@H](NC(=O)c3cnc(N4CCC(CN(C(C)C)[C@H]5C[C@H](Oc6cccc(C(=O)NC7CCC(=O)NC7=O)c6)C5)CC4)cn3)C2(C)C)cc(C)c1C#N` (some centres unmarked) [Compound 15, 5-(4-[[(propan-2-yl)[(1r,3r)-3-[3-[(2,6-dioxopiperidin-3-yl)carbamoyl]phenoxy]cyclobutyl]amino]methyl]piperidin-1-yl)-N-[(1r,3r)-3-(4-cyano-3,5-dimethylphenoxy)-2,2,4,4-tetramethylcyclobutyl]pyrazine-2-carboxamide], the DC50 fell in the range of 1 to 10 nM and the Dmax was under 50%.
In the same order, the values of `CC(C)N(CC1CCN(c2cnc(C(=O)N[C@H]3C(C)(C)[C@H](Oc4ccc(C#N)c(Cl)c4)C3(C)C)cn2)CC1)[C@H]1C[C@H](Oc2ccc(C(=O)NC3CCC(=O)NC3=O)cc2)C1` (stereo partly drawn) [Compound 16, N-((1R,3R)-3-(3-chloro-4-cyanophenoxy)-2,2,4,4-tetramethylcyclobutyl)-5-(4-((((1R,3R)-3-(4-((2,6-dioxopiperidin-3-yl)carbamoyl)phenoxy)cyclobutyl)(isopropyl)amino)methyl)piperidin-1-yl)pyrazine-2-carboxamide] are 1 to 10 nM and under 50%.
